Read-outs that look alike come from different tables or passages of the source.
Key:
229E Mpro = 229E Mpro (Human coronavirus 229E, UniProt P0C6X1); assay: 229E Mpro enzymatic assay (standard methods, SARS-CoV2 Mpro assay given as exemplary); type: biochemical, human coronavirus (HCov) 229E
In short: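 IC50 for 229E Mpro by standard methods; exemplary SARS-CoV-2 protocol used C-His6-tagged Mpro from E. coli, 25 nM enzyme, 25 μM substrate (Km 13.5 μM), in Tris-HCl pH 7.3, NaCl, EDTA, TCEP, 0.1% BSA. Inhibition normalised to no-compound and full-effect controls; four-parameter fit.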

[1] = molecular target: COVID-19 (nCoV-2019, SARS-CoV2) Mpro (Severe acute respiratory syndrome coronavirus 2, UniProt P0DTD1); assay: COVID-19 (nCoV-2019, SARS-CoV2) Mpro enzymatic assay; type: biochemical; conditions: 25 nM Mpro, 25 μM substrate; read-out: COVID-19 Mpro IC50
HCov OC43 = assay: HCoV OC43 cytopathic effect (CPE) assay, CellTiter Glo; type: cell-based, human coronavirus (HCov) OC43
[2] = Betacoronavirus 1, OC43, read-out: OC43 IC50 (uM) MEDIAN, median
[3] = read-out: OC43 IC50 (uM) MEDIAN, median

229E Mpro, sequence (P0C6X1 2966-3267): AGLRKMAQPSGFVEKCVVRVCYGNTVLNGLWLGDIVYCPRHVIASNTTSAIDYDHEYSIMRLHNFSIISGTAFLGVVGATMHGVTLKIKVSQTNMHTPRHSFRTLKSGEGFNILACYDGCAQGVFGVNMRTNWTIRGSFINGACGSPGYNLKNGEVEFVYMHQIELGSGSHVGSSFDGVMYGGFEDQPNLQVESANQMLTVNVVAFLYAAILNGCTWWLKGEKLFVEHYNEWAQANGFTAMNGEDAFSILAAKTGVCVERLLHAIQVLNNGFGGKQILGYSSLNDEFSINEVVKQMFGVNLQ

Structure (SMILES) | EC50 (229E Mpro; 229E Mpro EC50) | IC50 [1] | IC50 (HCov OC43; [2]) | IC50 (HCov OC43; [3]) | EC50 (229E Mpro; read-out: 229E Mpro EC50) | IC50 (HCov OC43; read-out: OC43 IC50 (uM) MEDIAN, median, listed as 427 Isomer 1) | IC50 (HCov OC43; read-out: OC43 IC50 (uM) MEDIAN, median, listed as 407 Isomer 2) | IC50 (HCov OC43; read-out: OC43 IC50 (uM) MEDIAN, median, listed as 1161 Isomer 2)
C[C@@]1(O)C[C@H](C(=O)N(c2ccc(S(F)(F)(F)(F)F)cc2)C(C(=O)NC2CCC(F)(F)CC2)c2ccc(F)nc2)N(C#N)C1 (single isomer, unassigned) [1157 Isomer 1] | < 2 µM | < 2 µM | < 2 µM |  |  |  |  | 
N#CN1C[C@@H]2CC[C@@H]2[C@@H]1C(=O)N(c1ccc(S(F)(F)(F)(F)F)cc1)C(C(=O)NC1CCC(F)(F)CC1)c1cncc(F)c1 (single isomer, unassigned) [1097 Isomer 1] | < 2 µM | < 2 µM | < 2 µM |  |  |  |  | 
N#CN1CCOC[C@@H]1C(=O)N(c1ccc(C2CC2)cc1F)C(C(=O)NC1CCC(F)(F)CC1)c1cnccc1C(F)(F)F (single isomer, unassigned) [Compound 1313 Isomer 1] | < 2 µM | < 2 µM | < 2 µM |  |  |  |  | 
CC(C(=O)NC1CCC(F)(F)CC1)(c1cccnc1)N(C(=O)[C@H]1[C@@H]2C[C@@H]2CN1C#N)c1ccc(S(F)(F)(F)(F)F)cc1 (single isomer, unassigned) [Compound 1251 Isomer 2] | < 2 µM | < 2 µM |  | < 2 µM |  |  |  | 
CO[C@@H]1C[C@H](C(=O)N(c2ccc(S(F)(F)(F)(F)F)cc2)C(C(=O)N(C)CC(=O)NC2CC2)c2cccnc2)N(C#N)C1 (single isomer, unassigned) [1122 Isomer 2] |  | 10 to 30 µM |  | 2 to 10 µM | < 2 µM |  |  | 
Cc1nc[nH]c1C(C(=O)NC1CCC(F)(F)CC1)N(C(=O)[C@H]1C[C@@](C)(O)CN1C#N)c1ccc(S(F)(F)(F)(F)F)cc1 (single isomer, unassigned) [1324 Isomer 2] |  | 10 to 30 µM |  | 2 to 10 µM | 10 to 30 µM |  |  | 
C[C@]1(O)CN[C@@H](C(=O)N(c2ccc(S(F)(F)(F)(F)F)cc2)C(C(=O)NC2CCC(F)(F)CC2)c2cnnc3ccccc23)C1 (stereo partly drawn) [Compound 711a] | < 2 µM | < 2 µM | < 2 µM |  |  |  |  | 
CO[C@@H]1C[C@H](C(=O)N(c2ccc(S(F)(F)(F)(F)F)cc2)C(C(=O)NC2CCC(F)(F)CC2)c2nncn2C(C)C)N(C#N)C1 (stereo partly drawn) [Compound 1307, (2R,4R)-1-cyano-N-[2-[(4,4-difluorocyclohexyl)amino]-1-(4-isopropyl-1,2,4-triazol-3-yl)-2-oxo-ethyl]-4-methoxy-N-[4-(pentafluoro-λ6-sulfanyl)phenyl]pyrrolidine-2-carboxamide] | > 30 µM | > 30 µM | > 30 µM |  |  |  |  | 
N#CN1C[C@H](O)C[C@@H]1C(=O)N(c1ccc(C2(C(F)(F)F)CC2)cc1)C(C(=O)NC1CCC(F)(F)CC1)c1cncc(F)c1 (single isomer, unassigned) [Compound 815a Isomer 2] |  | < 2 µM |  | < 2 µM | < 2 µM |  |  | 
N#C[C@H]1C[C@H](C(=O)N(c2ccc(S(F)(F)(F)(F)F)cc2)C(C(=O)NC2CCC(F)(F)CC2)c2cncc(F)c2)N(C#N)C1 (single isomer, unassigned) [1100 Isomer 1] | < 2 µM | < 2 µM | < 2 µM |  |  |  |  | 
CO[C@@H]1C[C@H](C(=O)N(c2ccc(S(F)(F)(F)(F)F)cc2)C(C(=O)N(C)CC(=O)NC2CC2)c2cccnc2)N(C#N)C1 (single isomer, unassigned) [1122 Isomer 1] |  | < 2 µM |  | < 2 µM | < 2 µM |  |  | 
CO[C@@H]1C[C@H](C(=O)N(c2ccc(S(F)(F)(F)(F)F)cc2)C(C(=O)NCCc2cc(F)cc(F)c2)c2cccnc2)N(C#N)C1 (single isomer, unassigned) [1196 Isomer 2] |  | < 2 µM |  | < 2 µM | < 2 µM |  |  | 
COC(C)(C)CNC(=O)C(c1cccnc1)N(C(=O)[C@H]1CCCN1C#N)c1ccc(C(C)(C)C)cc1 (single isomer, unassigned) [Compound 427 Isomer 1] | 2 to 10 µM | 10 to 30 µM |  |  |  | > 30 µM |  | 
COCCCNC(=O)C(c1cccnc1)N(C(=O)[C@H]1C[C@@H](O)CN1C#N)c1ccc(C(C)(C)C)cc1 (single isomer, unassigned) [647 Isomer 1] | < 2 µM | < 2 µM | < 2 µM |  |  |  |  | 
CO[C@@H]1C[C@H](C(=O)N(c2ccc(C(C)(C)C)cc2F)C(C(=O)NC2CCC(F)(F)CC2)c2cncc(F)c2)N(C#N)C1 (single isomer, unassigned) [1207 Isomer 2] | > 30 µM | > 30 µM |  | > 30 µM |  |  |  | 
COc1ccc(NC(=O)C(c2cccnc2)N(C(=O)[C@H]2CCCN2C#N)c2ccc(C(C)(C)C)cc2)cn1 (single isomer, unassigned) [Compound 407 Isomer 2] | 10 to 30 µM | > 30 µM |  |  |  |  | > 30 µM | 
O=C(NC1CCC(F)(F)CC1)C(c1cncc(F)c1)N(C(=O)c1cnc[nH]1)c1ccc(C2CC2)cc1F (single isomer, unassigned) [1336 Isomer 1, N-(4-cyclopropyl-2-fluorophenyl)-N-(2-((4,4-difluorocyclohexyl)amino)-1-(5-fluoropyridin-3-yl)-2-oxoethyl)-1H-imidazole-5-carboxamide] | 2 to 10 µM | 10 to 30 µM | > 30 µM |  |  |  |  | 
CO[C@@H]1C[C@H](C(=O)N(c2ccc(S(F)(F)(F)(F)F)cc2)C(C(=O)Nc2ccc3c(c2)OCCO3)c2cccnc2)N(C#N)C1 (single isomer, unassigned) [1170 Isomer 2] | < 2 µM | < 2 µM |  | < 2 µM |  |  |  | 
CC(C)(C)c1ccc(N(C(=O)[C@H]2C[C@@H](Oc3ccccc3)CN2C#N)C(C(=O)NC2CCCCC2)c2cccnc2)cc1 (single isomer, unassigned) [307 Isomer 2] | 2 to 10 µM | > 30 µM |  | 2 to 10 µM |  |  |  | 
C[C@@H]1CN(C#N)[C@H]1C(=O)N(c1ccc(S(F)(F)(F)(F)F)cc1)C(C(=O)NC1CCC(F)(F)CC1)c1cncc(F)c1 (single isomer, unassigned) [1211 Isomer 1] | < 2 µM | 2 to 10 µM | < 2 µM |  |  |  |  | 
CC(C)(C)c1ccc(N(C(=O)[C@H]2[C@H](F)CCN2C#N)C(C(=O)NC2CCC(F)(F)CC2)c2cncc(F)c2)cc1 (single isomer, unassigned) [1212 Isomer 2] |  | < 2 µM |  | < 2 µM | < 2 µM |  |  | 
CC(C)(C)c1ccc(N(C(=O)[C@H]2[C@H](F)CCN2C#N)C(C(=O)NC2CCCCC2)c2cccnc2)cc1 (single isomer, unassigned) [Compound 910 Isomer 1] | < 2 µM | < 2 µM | < 2 µM |  |  |  |  | 
C[C@@H]1OCCN(C#N)[C@H]1C(=O)N(c1ccc(S(F)(F)(F)(F)F)cc1)C(C(=O)NC1CCOCC1)c1cncc(F)c1 (stereo partly drawn) [Compound 1419] | < 2 µM | < 2 µM | 2 to 10 µM |  |  |  |  | 
CC(C(=O)NC1CCC(F)(F)CC1)(c1cccnc1)N(C(=O)[C@H]1C[C@@](C)(O)CN1C#N)c1ccc(S(F)(F)(F)(F)F)cc1 (single isomer, unassigned) [Compound 1077 Isomer 2] |  | < 2 µM |  | < 2 µM | < 2 µM |  |  | 
N#CN1CC(=O)NCC1C(=O)N(c1ccc(S(F)(F)(F)(F)F)cc1)C(C(=O)NC1CCC(F)(F)CC1)c1cncc(F)c1 (stereo not drawn) [Compound 1160, 1-cyano-N-[2-[(4,4-difluorocyclohexyl)amino]-1-(5-fluoro-3-pyridyl)-2-oxo-ethyl]-5-oxo-N-[4-(pentafluoro-λ^6-sulfanyl)phenyl]piperazine-2-carboxamide] | < 2 µM | < 2 µM | < 2 µM |  |  |  |  | 
CC1(O)CN(C(=O)C(c2cccnc2)N(C(=O)[C@H]2CCCN2C#N)c2ccc(C(C)(C)C)cc2)C1 (single isomer, unassigned) [955 Isomer 1] | 2 to 10 µM | 2 to 10 µM |  | 2 to 10 µM |  |  |  | 
CN1CC(C(=O)N(c2ccc(S(F)(F)(F)(F)F)cc2)C(C(=O)NC2CCC(F)(F)CC2)c2cncc(F)c2)N(C#N)CC1=O (single isomer, unassigned) [Compound 1161 Isomer 2, 1-cyano-N-[2-[(4,4-difluorocyclohexyl)amino]-1-(5-fluoro-3-pyridyl)-2-oxo-ethyl]-4-methyl-5-oxo-N-[4-(pentafluoro-λ6-sulfanyl)phenyl]piperazine-2-carboxamide] | 2 to 10 µM | 2 to 10 µM |  |  |  |  |  | 2 to 10 µM
CC(C)(C)c1ccc(N(C(=O)[C@H]2CCCN2C#N)C(C(=O)N2CC(=O)C2)c2cccnc2)cc1 (stereo partly drawn) [Compound 946b, (2R)—N-(4-(tert-butyl)phenyl)-1-cyano-N-(2-oxo-2-(3-oxoazetidin-1-yl)-1-(pyridin-3-yl)ethyl)pyrrolidine-2-carboxamide] | 2 to 10 µM | 10 to 30 µM | 10 to 30 µM |  |  |  |  | 
N#CN1C[C@H](O)C[C@@H]1C(=O)N(c1ccc(C(F)(C(F)(F)F)C(F)(F)F)cc1)C(C(=O)NC1CCCCC1)c1cccnc1 (single isomer, unassigned) [Compound 779 Isomer 2] | 2 to 10 µM | 2 to 10 µM |  | 2 to 10 µM |  |  |  | 
CC(C)(C)OC(=O)N1CCN(C(=O)C(c2cccnc2)N(C(=O)[C@H]2CCCN2C#N)c2ccc(C(C)(C)C)cc2)CC1 (stereo partly drawn) [Compound 954b] | 2 to 10 µM | 2 to 10 µM | 2 to 10 µM |  |  |  |  | 
